Data on 18 compounds can be found in patent publication US8921405B2, “Compounds” (Orexo AB, priority 2009, dated 2014).

The experiment deals with T1, recombinant human mPGES-1 (Homo sapiens, UniProt O14684).
T1 construct: made in house; host or cells: Rosetta E. coli (membrane/microsome fraction)
T1 sequence (O14684 1-152): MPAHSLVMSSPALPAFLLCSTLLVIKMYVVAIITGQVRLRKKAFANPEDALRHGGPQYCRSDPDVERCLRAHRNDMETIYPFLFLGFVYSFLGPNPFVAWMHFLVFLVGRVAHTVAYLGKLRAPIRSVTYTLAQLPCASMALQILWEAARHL
As to the kind of experiment: mPGES-1 HTRF assay (inhibition of PGE2 formation from PGH2). The settings on record: HTRF assay; for inhibition at 10 µM: read-out: % inhibition. Format: biochemical. Here is the method:
The basis of the assay used is to measure the inhibition of microsomal prostaglandin E2 synthase-1 (mPGES-1) dependent prostaglandin (PG) E2 formation from PGH2 by different compounds. Thus, the formation of PGE2 is used as signal and a lowering of this signal can be interpreted as inhibition of mPGES-1. […] Microsomes from Rosetta E. coli bacteria expressing recombinant human mPGES-1 can be derived as described below: Inoculate 5 ml LB with Amp and Chloro with bacteria from freeze culture. Incubate over night at 37° C. with 200 rpm. Thereafter, inoculate 500-800 ml LB containing Amp and Chloro with the 5 ml on culture and grow to OD640 of 0.6-0.8. Chill the culture to +4° C. before induction. Induce the culture with IPTG at a final concentration of 400 μM. Express the protein at room temp 18-23° C. with 200 rpm shaking over night. The following steps can be performed on the following day: • 1. Spin down the cells in 250 ml centrifuge flasks for 15 min at 7000 rpm • 2. Dissolve the pellet from 250 ml culture in 12.5 ml homogenization buffer • 3. Disintegrate the cells by sonication, 4×10 seconds at 35% amplitude • 4. Add 2.5 ml MgCl2 (100 mM) and DNase 12.5 μl (0.8 mg/ml) and incubate on ice for 30 min • 5. Spin down the bacteria debris and save the supernatant, 7000 rpm for 15 min • 6. Isolate the protein containing membranes in the supernatant by ultracentrifugation 45000×g for 1 hour. • 7. Discard the supernatant and dissolve the pellet in 20 mM KPi buffer and aliquot the enzyme and store aliquots at −80° C. Before each experiment is performed an aliquot of the enzyme is thawed and it can then be dissolved in 0.1 M KPi pH 7.4 buffer containing 2.5 mM GSH. 50 μl of this enzyme solution is subsequently dispensed in a 384-well plate at room temperature. 0.5 μl of the inhibitor dissolved in DMSO is thereafter added to each well and incubated for 25 minutes at room temperature. Subsequently, 2 μl of PGH2 dissolved in an appropriate solvent is added to each well and after one minute at room temperature, the acidified stop solution containing FeCl2 is added. 4 μl of the total volume is transferred to a separate plate and diluted 750-fold in two separate steps before quantification of PGE2. In order to quantitate the amount of PGE2 that has been formed, a homogenous time resolved fluorescent (HTRF) detection of PGE2 can be performed by the use of a commercially available kit from CisBio essentially according to the manufacturer's protocol. […] The sealing film is thereafter removed from the NC wells. • 5 μl Eu3+-cryptate labeled anti-PGE2 can now be added to rows 1 to 24 by using a Multidrop. • The plate can now be covered with sealing film. • The plate can now be centrifuge at 1200 rpm for 1 minute and place at 4° C. overnight. After the over night incubation the fluorescence is measured by the use of an appropriate microplate reader. […] The extent of the specific HTRF is measured as a ratio of the emission intensity at 665 nm vs. that at 620 nm. A standard curve using synthetic PGE2 is used to quantify the amount of PGE2 in unknown samples. The degree of inhibition can be calculated as percent inhibition by dividing the amount of PGE2 formed in unknown samples by the amount of PGE2 formed in control samples.
(In general: Time-resolved FRET reads energy transfer from a long-lived donor to a nearby acceptor.)

Setting [1] is: compound concentration of 10 μM.

On to `CC(=O)NCc1ccc(Cl)c(Nc2nc3cc(C(=O)NCC4CCCCC4)ccc3n2C)c1` [Example 32, 2-[5-(Acetamidomethyl)-2-chlorophenylamino]-N-cyclohexylmethyl-1-methylbenzimidazole-5-carboxamide], for which the inhibition – broadly, the share of the control response that was lost under treatment – at 10 µM under setting [1] was found to be 98%.

On to `Cn1c(Nc2cc(CNC(=O)C3(C(F)(F)F)CC3)ccc2Cl)nc2cc(C(=O)NC3CCC(F)(F)CC3)c(OCC(F)F)cc21` [Example 62, N-(4,4-Difluorocyclohexyl)-2-(2-chloro-5-{[(1-trifluoromethyl-cyclopropanecarbonyl)-amino]-methyl}-phenylamino)-6-(2,2-difluoro-ethoxy)-1-methyl-1H-benzimidazole-5-carboxylic acid amide], for which the IC50 (as a rule, the concentration that inhibits the measured activity by half) amounted to 1 nM.

In the case of `Cn1c(Nc2cc(CN[S+]([O-])C(C)(C)C)ccc2Cl)nc2cc(C(=O)Nc3ccc(Br)cc3)c(OCC(F)F)cc21` (stereo not drawn) [Example 81, N-(4-Bromo-phenyl)-2-(2-chloro-5-{[(tert-butylsulfinyl)-amino]-methyl}-phenylamino)-6-(2,2-difluoro-ethoxy)-1-methyl-1H-benzimidazole-5-carboxylic acid amide], the IC50 came out at 2 nM.

Turning to `Cn1c(Nc2cc(CNC(=O)C3(C(F)(F)F)CC3)ccc2Cl)nc2cc(C(=O)Nc3ccc(Br)cc3)ccc21` [Example 37, N-(4-Bromophenyl)-2-{2-chloro-5-[(1-trifluoromethylcyclopropylamido)methyl]phenylamino}-1-methylbenzimidazole-5-carboxamide], under setting [1], the inhibition at 10 µM was 100%.

Regarding `Cn1c(Nc2cc(CNC(=O)c3c(F)cccc3Cl)ccc2Cl)nc2cc(C(=O)Nc3ccc(Br)cc3)ccc21` [Example 36, N-(4-Bromophenyl)-2-{2-chloro-5-[(2-chloro-6-fluorobenzamido)methyl]phenylamino}-1-methylbenzimidazole-5-carboxamide], the inhibition at 10 µM under setting [1] came out at 100%.

As to `CN(C(=O)c1ccc2c(c1)nc(Nc1cc(CNC(=O)C3(C)CCCCC3)ccc1Cl)n2C)C1CCCC1` [Example 22, 2-{2-Chloro-5-[(1-methylcyclohexylamido)methyl]phenylamino}-N-cyclopentyl-N,1-dimethylbenzimidazole-5-carboxamide], under setting [1], the inhibition at 10 µM is 98%.

As to `Cn1c(Nc2cc(CNC(=O)C3(C)CCCCC3)ccc2Cl)nc2cc(Cl)c(NC(=O)C3CCCC3)cc21` [Example 6, N-{4-chloro-3-[5-chloro-6-(cyclopentylamido)-1-methyl-2-benzimidazolylamino]benzyl}-1-methylcyclohexylamide], the % inhibition (in general, the relative decrease from the control value, in per cent) under setting [1] is given as 100%.

On to `CCC1(C(=O)NCc2ccc(Cl)c(Nc3nc4cc(C(=O)Nc5ccc(Br)cc5)ccc4n3C)c2)CCCC1` [Example 46, N-(4-Bromophenyl)-2-{2-chloro-5-[(1-ethylcyclopentylamido)methyl]-phenylamino}-1-methylbenzimidazole-5-carboxamide], for which the inhibition at 10 µM under setting [1] came out at 100%.

In the case of `Cn1c(Nc2cc(CNC(=O)C(C)(C)C)ccc2C(F)(F)F)nc2cc(C(=O)N[C@H]3CC[C@H](C(F)(F)F)CC3)c(OCC(F)F)cc21` [Example 95, N-(trans-4-Trifluoromethyl-cyclohex-1-yl)-1-methyl-2-(2-trifluoromethyl-5-{[(tert-butylcarbonyl)-amino]-methyl}-phenylamino)-6-(2,2-difluoro-ethoxy)-1H-benzimidazole-5-carboxylic acid amide], the IC50 is 1 nM.

`Cn1c(Nc2cc(CNC(=O)C(C)(C)C)ccc2Cl)nc2cc(C(=O)Nc3ccc(F)c(Cl)c3)c(OCC(F)F)cc21` [Example 86, N-(3-Chloro-4-fluoro-phenyl)-2-(2-chloro-5-{[(tert-butylcarbonyl)-amino]-methyl}-phenylamino)-6-(2,2-difluoro-ethoxy)-1-methyl-1H-benzimidazole-5-carboxylic acid amide]: the IC50 is 1 nM.

Turning to `Cn1c(Nc2cc(CNC(=O)C3(C(F)(F)F)CC3)ccc2Cl)nc2cc(C(=O)NCC3CC3)c(OCC(F)F)cc21` [Example 60, N-(Cyclopropylmethyl)-2-(2-chloro-5-{[(1-trifluoromethyl-cyclopropanecarbonyl)-amino]-methyl}-phenylamino)-6-(2,2-difluoro-ethoxy)-1-methyl-1H-benzimidazole-5-carboxylic acid amide], the IC50 stood at 1 nM.

For the compound `Cn1c(Nc2cc(CNS(=O)(=O)c3cccs3)ccc2Cl)nc2cc(C(=O)NCC3CCCCC3)ccc21` [Example 9, 2-{2-Chloro-5-[(2-thienylsulfonamido)methyl]phenylamino}-N-cyclohexylmethyl-1-methylbenzimidazole-5-carboxamide], the inhibition at 10 µM under setting [1] came out at 98%.

Take `Cn1c(Nc2cc(CNC(=O)C3(O)CC3)ccc2Cl)nc2cc(C(=O)Nc3ccc(Br)cc3)c(OCC(F)F)cc21` [Example 76, N-(4-Bromo-phenyl)-2-(2-chloro-5-{[(1-hydroxycyclopropanecarbonyl)-amino]-methyl}-phenylamino)-6-(2,2-difluoro-ethoxy)-1-methyl-1H-benzimidazole-5-carboxylic acid amide]: the IC50 is 3 nM.

On to `COCCn1c(Nc2cc(CNC(=O)C3(C(F)(F)F)CC3)ccc2Cl)nc2cc(C(=O)Nc3ccc(Br)cc3)ccc21` [Example 71, N-(4-Bromo-phenyl)-2-(2-chloro-5-{[(1-trifluoromethyl-cyclopropanecarbonyl)-amino]-methyl}-phenylamino)-1-(2-methoxyethyl)-1H-benzimidazole-5-carboxylic acid amide], for which the IC50 came to 2 nM.

For `CC(C)(C)C(=O)NCc1ccc(C(F)(F)F)c(Nc2nc3cc(C(=O)N[C@H]4CC[C@H](C(F)(F)F)CC4)c(OCC(F)F)cc3[nH]2)c1` [Example 96, N-(trans-4-Trifluoromethyl-cyclohex-1-yl)-2-(2-trifluoromethyl-5-{[(tert-butylcarbonyl)-amino]-methyl}-phenylamino)-6-(2,2-difluoro-ethoxy)-1H-benzimidazole-5-carboxylic acid amide], the IC50 came out at 1 nM.

For `Cn1c(Nc2cc(CNC(=O)C3CC3)ccc2Cl)nc2cc(C(=O)Nc3ccc(Br)cc3)c(OCC(F)F)cc21` [Example 80, N-(4-Bromo-phenyl)-2-(2-chloro-5-{[(cyclopropylcarbonyl)-amino]-methyl}-phenylamino)-6-(2,2-difluoro-ethoxy)-1-methyl-1H-benzimidazole-5-carboxylic acid amide], the IC50 came out at 9 nM.

On to `Cn1c(Nc2cc(CNS(=O)(=O)C3CC3)ccc2Cl)nc2cc(C(=O)Nc3ccc(Br)cc3)ccc21` [Example 45, N-(4-Bromophenyl)-2-{2-chloro-5-[(cyclopropylsulfonamido)methyl]-phenylamino}-1-methylbenzimidazole-5-carboxamide], for which, under setting [1], the inhibition at 10 µM turned out to be 100%.

In the case of `Cn1c(Nc2cc(CNC(=O)C3(C(F)(F)F)CC3)ccc2Cl)nc2cc(C(=O)Nc3ccc(Br)cc3)c(OCC(F)F)cc21` [Example 59, N-(4-Bromo-phenyl)-2-(2-chloro-5-{[(1-trifluoromethyl-cyclopropanecarbonyl)-amino]-methyl}-phenylamino)-6-(2,2-difluoro-ethoxy)-1-methyl-1H-benzimidazole-5-carboxylic acid amide], the IC50 was determined as 2 nM.
